Measurements reported in patent US7968526B2, “Antisense oligonucleotides directed to ribonucleotide reductase R2 and uses thereof in the treatment of cancer” (Lorus Therapeutics Inc., priority 2003, dated 2011).

Assay: Tissue distribution in the rat (CE method)
Assay type: in vivo
Protocol: The toxicokinetics and tissue distribution of SEQ ID NO:1 (and related oligonucleotide metabolites obtained from exonuclease-mediated chain shortening) were determined in rats and monkeys. In addition to investigating the pharmacokinetics and tissue distribution of SEQ ID NO:1, the purpose of the studies was to correlate adverse effects in the animal studies to the concentrations of SEQ ID NO:1 (and metabolites) in tissue and blood. A capillary electrophoresis (CE) method was used to measure the concentrations of SEQ ID NO:1 (and metabolites) in plasma and tissues.
The concentrations of SEQ ID NO:1 (and related n+1, n−1 to n−15 oligonucleotide metabolites) in the following rat and monkey tissues were measured by a validated CE method (Southwest Bio-Labs, Inc.): kidney, liver, spleen, heart, lung, bone marrow (rat), lymph nodes (monkey) and brain tissues. The tissue samples were collected from the designated animals as described in the 21-day toxicity studies: rats, administered bolus intravenous injections of SEQ ID NO:1 every other day at 2, 10, or 50 mg/kg; and monkeys administered SEQ ID NO:1 by continuous intravenous infusion at 2, 10, or 50 mg/kg/day.

[1] = 2 mg/kg bolus i.v. every other day, 4 hrs post first dose
[2] = 2 mg/kg bolus i.v. every other day, 4 hrs post last dose
[3] = 2 mg/kg bolus i.v. every other day, 48 hrs post first dose
[4] = 10 mg/kg bolus i.v. every other day, 4 hrs post first dose
[5] = 10 mg/kg bolus i.v. every other day, 4 hrs post last dose

What does the source list for “5′-GGCTAAATCGCTCCACCAAG-3′ (all phosphorothioate, sugars by position and methylation of C not given here) [SEQ ID NO: 1, fully phosphorothioated antisense oligonucleotide that hybridizes to the coding region of R2 mRNA]”?
Rank order of tissue concentrations: kidney>liver>bone marrow>spleen>heart>lung; Mean Concentration SEQ ID NO: 1, Bone Marrow [1]: BDL (below detectable limits (1 μg/g rat; 0.2 μg/g monkey)); Mean Concentration SEQ ID NO: 1, Brain [1]: BDL (below detectable limits (1 μg/g rat; 0.2 μg/g monkey)); Mean Concentration SEQ ID NO: 1, Heart [1]: 0.8 µg/g; Mean Concentration SEQ ID NO: 1, Kidney [1]: 6.7 µg/g; Mean Concentration SEQ ID NO: 1, Liver [1]: 6.9 µg/g; Mean Concentration SEQ ID NO: 1, Lung [1]: BDL (below detectable limits (1 μg/g rat; 0.2 μg/g monkey)); Mean Concentration SEQ ID NO: 1, Spleen [1]: 1.0 µg/g; Mean Concentration total metabolites (n + 1 through n − 13), Bone Marrow [1]: BDL (below detectable limits (1 μg/g rat; 0.2 μg/g monkey)); Mean Concentration total metabolites (n + 1 through n − 13), Brain [1]: BDL (below detectable limits (1 μg/g rat; 0.2 μg/g monkey)); Mean Concentration total metabolites (n + 1 through n − 13), Heart [1]: 0.3 µg/g; Mean Concentration total metabolites (n + 1 through n − 13), Kidney [1]: 20.8 µg/g; Mean Concentration total metabolites (n + 1 through n − 13), Liver [1]: 16.9 µg/g; Mean Concentration total metabolites (n + 1 through n − 13), Lung [1]: BDL (below detectable limits (1 μg/g rat; 0.2 μg/g monkey)); Mean Concentration total metabolites (n + 1 through n − 13), Spleen [1]: 1.2 µg/g; Mean Concentration SEQ ID NO: 1, Bone Marrow [2]: 1.8 µg/g; Mean Concentration SEQ ID NO: 1, Brain [2]: BDL (below detectable limits (1 μg/g rat; 0.2 μg/g monkey)); Mean Concentration SEQ ID NO: 1, Heart [2]: BDL (below detectable limits (1 μg/g rat; 0.2 μg/g monkey)); Mean Concentration SEQ ID NO: 1, Kidney [2]: 28.0 µg/g; Mean Concentration SEQ ID NO: 1, Liver [2]: 13.8 µg/g; Mean Concentration SEQ ID NO: 1, Lung [2]: 0.9 µg/g; Mean Concentration SEQ ID NO: 1, Spleen [2]: 1.8 µg/g; Mean Concentration total metabolites (n + 1 through n − 13), Bone Marrow [2]: 3.8 µg/g; Mean Concentration total metabolites (n + 1 through n − 13), Brain [2]: BDL (below detectable limits (1 μg/g rat; 0.2 μg/g monkey)); Mean Concentration total metabolites (n + 1 through n − 13), Heart [2]: BDL (below detectable limits (1 μg/g rat; 0.2 μg/g monkey)); Mean Concentration total metabolites (n + 1 through n − 13), Kidney [2]: 122.8 µg/g; Mean Concentration total metabolites (n + 1 through n − 13), Liver [2]: 42.1 µg/g; Mean Concentration total metabolites (n + 1 through n − 13), Lung [2]: 0.2 µg/g; Mean Concentration total metabolites (n + 1 through n − 13), Spleen [2]: 6.5 µg/g; Mean Concentration SEQ ID NO: 1, Bone Marrow [3]: BDL (below detectable limits (1 μg/g rat; 0.2 μg/g monkey)); Mean Concentration SEQ ID NO: 1, Brain [3]: BDL (below detectable limits (1 μg/g rat; 0.2 μg/g monkey)); Mean Concentration SEQ ID NO: 1, Heart [3]: BDL (below detectable limits (1 μg/g rat; 0.2 μg/g monkey)); Mean Concentration SEQ ID NO: 1, Kidney [3]: 1.0 µg/g; Mean Concentration SEQ ID NO: 1, Liver [3]: BDL (below detectable limits (1 μg/g rat; 0.2 μg/g monkey)); Mean Concentration SEQ ID NO: 1, Lung [3]: BDL (below detectable limits (1 μg/g rat; 0.2 μg/g monkey)); Mean Concentration SEQ ID NO: 1, Spleen [3]: BDL (below detectable limits (1 μg/g rat; 0.2 μg/g monkey)); Mean Concentration total metabolites (n + 1 through n − 13), Bone Marrow [3]: BDL (below detectable limits (1 μg/g rat; 0.2 μg/g monkey)); Mean Concentration total metabolites (n + 1 through n − 13), Brain [3]: BDL (below detectable limits (1 μg/g rat; 0.2 μg/g monkey)); Mean Concentration total metabolites (n + 1 through n − 13), Heart [3]: BDL (below detectable limits (1 μg/g rat; 0.2 μg/g monkey)); Mean Concentration total metabolites (n + 1 through n − 13), Kidney [3]: 3.6 µg/g; Mean Concentration total metabolites (n + 1 through n − 13), Liver [3]: BDL (below detectable limits (1 μg/g rat; 0.2 μg/g monkey)); Mean Concentration total metabolites (n + 1 through n − 13), Lung [3]: BDL (below detectable limits (1 μg/g rat; 0.2 μg/g monkey)); Mean Concentration total metabolites (n + 1 through n − 13), Spleen [3]: BDL (below detectable limits (1 μg/g rat; 0.2 μg/g monkey)); Mean Concentration SEQ ID NO: 1, Bone Marrow [4]: 2.7 µg/g; Mean Concentration SEQ ID NO: 1, Brain [4]: BDL (below detectable limits (1 μg/g rat; 0.2 μg/g monkey)); Mean Concentration SEQ ID NO: 1, Heart [4]: 1.5 µg/g; Mean Concentration SEQ ID NO: 1, Kidney [4]: 31.1 µg/g; Mean Concentration SEQ ID NO: 1, Liver [4]: 19.7 µg/g; Mean Concentration SEQ ID NO: 1, Lung [4]: 1.6 µg/g; Mean Concentration SEQ ID NO: 1, Spleen [4]: 2.6 µg/g; Mean Concentration total metabolites (n + 1 through n − 13), Bone Marrow [4]: 3.5 µg/g; Mean Concentration total metabolites (n + 1 through n − 13), Brain [4]: BDL (below detectable limits (1 μg/g rat; 0.2 μg/g monkey)); Mean Concentration total metabolites (n + 1 through n − 13), Heart [4]: 4.2 µg/g; Mean Concentration total metabolites (n + 1 through n − 13), Kidney [4]: 88.1 µg/g; Mean Concentration total metabolites (n + 1 through n − 13), Liver [4]: 47.9 µg/g; Mean Concentration total metabolites (n + 1 through n − 13), Lung [4]: 2.3 µg/g; Mean Concentration total metabolites (n + 1 through n − 13), Spleen [4]: 7.8 µg/g; Mean Concentration SEQ ID NO: 1, Bone Marrow [5]: 3.6 µg/g; Mean Concentration SEQ ID NO: 1, Brain [5]: BDL (below detectable limits (1 μg/g rat; 0.2 μg/g monkey)); Mean Concentration SEQ ID NO: 1, Heart [5]: BDL (below detectable limits (1 μg/g rat; 0.2 μg/g monkey)); Mean Concentration SEQ ID NO: 1, Kidney [5]: 129.5 µg/g; Mean Concentration SEQ ID NO: 1, Liver [5]: 38.1 µg/g; Mean Concentration SEQ ID NO: 1, Lung [5]: 2.1 µg/g; Mean Concentration SEQ ID NO: 1, Spleen [5]: 3.2 µg/g
